Results as given in the NIST ThermoML archive (doi:10.1016/j.jct.2013.10.031).

Conditions: for vapor or sublimation pressure: Liquid, Closed cell (Static) method; for mass density: Gas, Burnett expansion method

CCC [propane]
Conditions | vapor or sublimation pressure [kPa]
252.1 K | 236
256.21 K | 273.3
260.1 K | 311.1
264.21 K | 358.7
268.09 K | 406
272.13 K | 460.2
276.14 K | 519.7
280.21 K | 585.8
284.09 K | 653.2
288.1 K | 731.4
292.1 K | 814.2
296.21 K | 906.2
300.18 K | 1001.8
304.19 K | 1107.5
308.18 K | 1219.8
312.17 K | 1339.6
316.2 K | 1468.9
320.19 K | 1606.7

N#N [nitrogen]
mass density [kg/m3]
Conditions | 634.95 kPa | 845.67 kPa | 1127.1 kPa | 1502.9 kPa | 2004.5 kPa
322.97 K | – | 8.818 | 11.749 | – | 20.889
322.98 K | 6.619 | – | – | 15.668 | –

FCC(F)(F)F [1,1,1,2-tetrafluoroethane]
Conditions | vapor or sublimation pressure [kPa]
252.12 K | 127.2
256.18 K | 151.4
260.19 K | 178.5
264.2 K | 209.6
268.21 K | 244.3
272.14 K | 283
276.09 K | 326.1
280.13 K | 374.9
284.1 K | 428.7
288.09 K | 487
292.13 K | 554.1
296.32 K | 630.3
300.17 K | 707.1
304.12 K | 792.4
308.12 K | 887
312.19 K | 991.8
316.2 K | 1103.5
320.09 K | 1220.6
